In patent publication US5028731A, “Preparation of mixtures of cypermethrin or cyfluthrin isomers enriched in more active species” (FMC Corporation, priority 1989, dated 1991):
Converted amounts (≈) assume the structure as drawn. Where two headings read alike, the source gives them in different places.

Experiments:
Tobacco Budworm = assay: Foliar LC50 - Tobacco Budworm; assay type: in vivo; settings: for LC50: Heliothis virescens
From the text: This increase in activity is illustrated in Table II in which the test insect is the economically important tobacco budworm.
Foliar LC50 (ppm) - Tobacco Budworm

[1] = well known; c2, t2 pairs compared with c1 (III/IV) and t1 (VII/VIII) pairs; cited from earlier work

CC1(C)C(C=C(Cl)Cl)C1C(=O)OC(C#N)c1cccc(Oc2ccccc2)c1 (racemic) [Example 1, (R,S)-(cyano)(3-phenoxyphenyl)methyl cis/trans-3-(2,2-dichloroethenyl)-2,2-dimethylcyclopropanecarboxylate]
LC50 (Tobacco Budworm; Average of Tests 1-3, read-out: Foliar LC50, Average): 13.2 µg/mL (≈ 31.7 µM) | LC50 (Tobacco Budworm; Test 1, read-out: Foliar LC50): 8.4 µg/mL (≈ 20.2 µM) | LC50 (Tobacco Budworm; Test 2, read-out: Foliar LC50): 18.7 µg/mL (≈ 44.9 µM) | LC50 (Tobacco Budworm; Test 3, read-out: Foliar LC50): 12.5 µg/mL (≈ 30 µM)

CC1(C)C(C=C(Cl)Cl)C1C(=O)OC(C#N)c1cccc(Oc2ccccc2)c1 (racemic) [Example 5, (R,S)-(cyano)(3-phenoxyphenyl)methyl cis/trans-3-(2,2-dichloroethenyl)-2,2-dimethylcyclopropanecarboxylate]
Foliar LC50, Average (Tobacco Budworm; Average of Tests 1-3): 9.9 ppm | Foliar LC50 (Tobacco Budworm; Test 1): 6.5 ppm | Foliar LC50 (Tobacco Budworm; Test 2): 12.3 ppm | Foliar LC50 (Tobacco Budworm; Test 3): 11.0 ppm

CC1(C)[C@H](C(=O)O[C@H](C#N)c2cccc(Oc3ccccc3)c2)[C@@H]1C=C(Cl)Cl (relative stereo) [c2 enantiomer pair]
insecticidal activity [1]: more insecticidally active

CC1(C)[C@H](C=C(Cl)Cl)[C@H]1C(=O)O[C@H](C#N)c1cccc(Oc2ccccc2)c1 (relative stereo) [t2 enantiomer pair]
insecticidal activity [1]: more insecticidally active

CC1(C)[C@H](C(=O)O[C@H](C#N)c2cccc(Oc3ccccc3)c2)[C@@H]1C=C(Cl)Cl [I, (S)-(cyano)(3-phenoxyphenyl)methyl 1R,cis-3-(2,2-dichloroethenyl)-2,2-dimethylcyclopropanecarboxylate]
insecticidal activity [1]: most insecticidally active

CC1(C)[C@H](C=C(Cl)Cl)[C@H]1C(=O)O[C@H](C#N)c1cccc(Oc2ccccc2)c1 [V]
insecticidal activity [1]: most insecticidally active
